Results: patent US20210254138A1, “SIALIC ACID TRANSPORTER PROTEINS AS BIOMARKERS AND DRUG TARGETS” (Quadram Institute Bioscience, priority 2018, published 2021)

Columns and labels:
[1] = test system: R. gnavus ATCC 29149 nan deletion mutants; experiment: Growth on sole carbon source, nan deletion mutants; type: cell-based; conditions: 11.1 mM in YCFA, anaerobic
Description: R. gnavus mutants were generated using the ClosTron methodology (Heap et al., 2010), which inserts an erythromycin resistance cassette into the gene of interest. Target sites were identified using the Pertuka method (Perutka et al., 2004). The re-targeted introns were synthesised and ligated into the pMTL007C-E2 vector by ATUM (MenloPark, USA). The plasmids were then transformed into E. coli CA434 using the heat-shock protocol, and the recombinant clones selected for chloramphenicol resistance. Recombinant E. coli cells were grown overnight in 10 ml LB, 1 ml of the overnight culture was pelleted and washed with PBS. The E. coli cell pellet was resuspended in 200 μl of an R. gnavus overnight culture and the cell suspension spotted onto a non-selective BHI-YH plate. […]
(§1) The ability of the mutants to utilise sialic acids and sialoconjugates was assessed by supplementing YCFA with 11.1 mM of 2,7-anhydro-Neu5Ac, 3'SL, glucose or Neu5Ac in triplicate 200 μl cultures in 96-well microtiter plates. The OD595 nm was measured hourly for 10 h in an infinite F50 plate reader (Tecan, UK) housed within an anaerobic cabinet connected to Magellan V7.0 software.

[2] = test system: R. gnavus ATCC 29149 wild-type; experiment: Growth on sole carbon source, wild-type strain; type: cell-based; conditions: 11.1 mM in YCFA, anaerobic
Protocol: R. gnavus ATCC 29149 was routinely grown in an anaerobic cabinet (Don Whitley, Shipley, UK) in BHI-YH as previously described (Crost et al., 2013). Growth on single carbon sources utilized anaerobic basal YCFA medium (Duncan et al., 2002) supplemented with 11.1 mM of specific mono- or oligosaccharides (2,7-anhydro-Neu5Ac, 3'Sialyllactose (3'SL) or glucose). The bacteria were grown to late exponential phase for RNA extraction, the culture was performed in 14 ml tubes. Growth was determined spectrophotometrically by monitoring changes in optical density at […] compared to the same medium without bacterium (ΔOD595 nm) hourly for 10 hours.
as §1

In the case of CC(=O)N[C@H]1C2OC(C(=O)O)(C[C@@H]1O)O[C@@H]2[C@H](O)CO (some centres unmarked) [2,7-anhydro-Neu5Ac], the “growth on substrate as sole carbon source” value [1] is reported as “no growth was detected” and the “utilisation as a sole carbon source (growth)” value [2] is reported as “able to utilise”.
